Values joined by “and” are separate entries in the source; they are usually repeats but may differ in a detail not shown here. Equal entries are not always repeated.
Experiments:
[1] = biological target: succinate-ubiquinone redutase (SDH) of mitochondria from Bo47 WT strain (Botrytis cinerea, UniProt A0A384J5E4+D2IH01+D2IH03); assay: SDH activity of extracted mitochondria by DCPIP reduction at 595 nm, wild type; format: biochemical; settings: 20 min preincubation, -log 10 of concentration inhibiting DCPIP reduction by 50%; for IC50: PI50 Bo47 (Wild type)
Protocol: (§1) Compounds activity was investigated at the level of the mitochondrial target and compared to other SDH inhibitors.
(§2) Mitochondria were extracted according to Cramer et al. (1983) Analytical biochemistry, 128, 384-392 and the mycelium prepared according to Fritz et al., (1993). Agronomie 13, 225-230 except that spore's incubation was pursued for 48 hours. SDH activity was measured by following DCPIP (2,6-dichlorphenol-indophenol) reduction at 595 nm overtime. To test SDH inhibitors, mitochondria were incubated with test compounds for 20 min prior the initiation of the reaction.

[2] = biological target: succinate-ubiquinone redutase (SDH) of mitochondria from the 3884 strain (SDHB P225H substitution) (Botrytis cinerea, UniProt A0A384J5E4+D2IH01+D2IH03, P225H); assay: SDH activity of extracted mitochondria by DCPIP reduction at 595 nm, P225H mutant; format: biochemical; parameters: key to Classification: Classification A pI50 increase or stable compared to WT; Classification B pI50 decrease inferior or equal to 0.6 compared to WT; Classification C pI50 decrease superior to 0.6 compared to WT; settings: for IC50 / PI50 P225H3884: mitochondria of 3884 strain, 20 min preincubation, -log 10 of concentration inhibiting DCPIP reduction by 50%; for IC50: read-out: PI50 P225H3884 (converted); for Classification: pI50 on P225H 3884 mitochondria compared to WT
Protocol: as §1, §2

[3] = system: Botrytis cinerea boscalid-resistant strains with SDHB_P225H, F substitutions; assay: Sensitivity assay in microtiter plate, resistance factor of boscalid-resistant field strains versus Bo47 WT; format: cell-based
Protocol: Four to five strains with SDHB_P225H, F substitutions were retained for subsequent sensitivity assays in microtiter plate. IC50 of test compounds were determined and resistance factors (RF) calculated as the ratio of IC50 mutant/IC50 WT (Bo47). […] Strains giving a RF below 10 were considered sensitive, moderately resistant when RF was comprised between 10 and 50, resistant above 50.

[4] = mutation P225F, BOTRCI strain 08BC1554
[5] = mutation P225F, BOTRCI strain 08BC1557
[6] = mutation P225F, BOTRCI strain 08BC1558
[7] = mutation P225F, BOTRCI strain 09BC2615
[8] = mutation P225H, BOTRCI strain 09BC2640
[9] = mutation P225H, BOTRCI strain 09BC2648
[10] = mutation P225H, BOTRCI strain 09BC2649
[11] = mutation P225H, BOTRCI strain 09BC2652

Sequence of succinate-ubiquinone redutase (SDH) of mitochondria from Bo47 WT strain (A0A384K456 entry or part of it): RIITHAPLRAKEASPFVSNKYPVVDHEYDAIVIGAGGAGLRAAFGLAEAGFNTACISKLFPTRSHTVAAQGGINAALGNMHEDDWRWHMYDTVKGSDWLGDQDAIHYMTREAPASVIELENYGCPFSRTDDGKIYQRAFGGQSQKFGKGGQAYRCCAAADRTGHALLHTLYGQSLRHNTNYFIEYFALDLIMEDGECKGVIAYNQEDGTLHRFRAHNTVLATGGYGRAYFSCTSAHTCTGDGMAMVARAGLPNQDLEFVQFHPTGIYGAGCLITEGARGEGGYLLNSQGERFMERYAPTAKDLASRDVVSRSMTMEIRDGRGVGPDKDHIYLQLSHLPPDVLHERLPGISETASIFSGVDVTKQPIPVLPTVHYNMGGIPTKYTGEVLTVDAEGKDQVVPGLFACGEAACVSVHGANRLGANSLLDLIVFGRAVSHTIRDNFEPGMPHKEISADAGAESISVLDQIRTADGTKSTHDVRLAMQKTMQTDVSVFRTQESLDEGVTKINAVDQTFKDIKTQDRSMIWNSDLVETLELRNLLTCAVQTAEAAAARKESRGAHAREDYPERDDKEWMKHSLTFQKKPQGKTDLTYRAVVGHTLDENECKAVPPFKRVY
Sequence of succinate-ubiquinone redutase (SDH) of mitochondria from Bo47 WT strain (D2IH03 entry or part of it): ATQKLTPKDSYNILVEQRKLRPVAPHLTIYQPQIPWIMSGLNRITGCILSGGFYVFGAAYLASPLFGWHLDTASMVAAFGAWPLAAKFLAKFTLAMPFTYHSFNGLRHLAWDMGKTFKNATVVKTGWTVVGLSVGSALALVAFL
Sequence of succinate-ubiquinone redutase (SDH) of mitochondria from Bo47 WT strain (A0A384J5E4 entry or part of it): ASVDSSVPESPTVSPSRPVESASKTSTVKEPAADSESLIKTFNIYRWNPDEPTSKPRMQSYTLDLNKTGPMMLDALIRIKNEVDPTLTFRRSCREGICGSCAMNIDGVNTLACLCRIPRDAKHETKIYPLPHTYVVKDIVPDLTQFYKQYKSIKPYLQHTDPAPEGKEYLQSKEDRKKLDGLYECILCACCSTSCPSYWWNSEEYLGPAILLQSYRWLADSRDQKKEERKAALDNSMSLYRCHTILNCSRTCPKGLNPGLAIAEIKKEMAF
Sequence of succinate-ubiquinone redutase (SDH) of mitochondria from Bo47 WT strain (D2IH01 entry or part of it): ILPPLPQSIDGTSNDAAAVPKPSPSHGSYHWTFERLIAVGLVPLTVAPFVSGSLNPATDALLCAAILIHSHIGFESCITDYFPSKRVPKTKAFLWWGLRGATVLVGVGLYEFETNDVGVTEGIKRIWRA
Sequence of succinate-ubiquinone redutase (SDH) of mitochondria from the 3884 strain (SDHB P225H substitution) (A0A384J5E4 30-300, stated change not applied): as the sequence (A0A384J5E4 entry or part of it) above
Sequence of succinate-ubiquinone redutase (SDH) of mitochondria from the 3884 strain (SDHB P225H substitution) (D2IH03 46-189, stated change not applied): as the sequence (D2IH03 entry or part of it) above
Sequence of succinate-ubiquinone redutase (SDH) of mitochondria from the 3884 strain (SDHB P225H substitution) (D2IH01 64-192, stated change not applied): as the sequence (D2IH01 entry or part of it) above
Sequence of succinate-ubiquinone redutase (SDH) of mitochondria from the 3884 strain (SDHB P225H substitution) (A0A384K456 34-647 partner): as the sequence (A0A384K456 entry or part of it) above

Compound	IC50 [1]	IC50 [2] [nM]	Classification [2]	other results
CC(C)c1cccc(F)c1CN(C(=O)c1c(C(F)F)nn(C)c1F)C1CC1 [Compound A10, N-cyclopropyl-3-(difluoromethyl)-5-fluoro-N-(2-fluoro-6-isopropylbenzyl)-1-methyl-1H-pyrazole-4-carboxamide]	3.98 nM	6.31	B (Classification B pI50 decrease inferior or equal to 0.6 compared to WT)	–
Cn1nc(C(F)F)c(C(=O)N(Cc2ccccc2C(C)(C)C)C2CC2)c1F [Compound A3, N-(2-tert-butylbenzyl)-N-cyclopropyl-3-(difluoromethyl)-5-fluoro-1-methyl-1H-pyrazole-4-carboxamide]	–	–	–	resistance factor (RF), ratio of IC50 mutant/IC50 WT (Bo47) [3, 4]: 1.8; resistance factor (RF), ratio of IC50 mutant/IC50 WT (Bo47) [3, 5]: 1.2; resistance factor (RF), ratio of IC50 mutant/IC50 WT (Bo47) [3, 6]: 2.2; resistance factor (RF), ratio of IC50 mutant/IC50 WT (Bo47) [3, 7]: 1.0; resistance factor (RF), ratio of IC50 mutant/IC50 WT (Bo47) [3, 8]: 0.9; resistance factor (RF), ratio of IC50 mutant/IC50 WT (Bo47) [3, 9]: 1.0; resistance factor (RF), ratio of IC50 mutant/IC50 WT (Bo47) [3, 10]: 1.7; resistance factor (RF), ratio of IC50 mutant/IC50 WT (Bo47) [3, 11]: 1.1
CC(C)c1ccc(F)cc1CN(C(=O)c1c(C(F)F)nn(C)c1F)C1CC1 [Compound A7, N-cyclopropyl-3-(difluoromethyl)-5-fluoro-N-(5-fluoro-2-isopropylbenzyl)-1-methyl-1H-pyrazole-4-carboxamide]	3.98 nM	1.58	A	–
Cn1nc(C(F)F)c(C(=O)N(Cc2ccccc2C2CC2)C2CC2)c1F [Compound A2, N-cyclopropyl-N-(2-cyclopropylbenzyl)-3-(difluoromethyl)-5-fluoro-1-methyl-1H-pyrazole-4-carboxamide]	6.31 nM	2.51	A	–
CC(C)CC(C)c1sccc1NC(=O)c1cn(C)nc1C(F)(F)F (stereo not shown) [Penthiopyrad, reference compound]	15.8 nM	501	C (Classification C pI50 decrease superior to 0.6 compared to WT)	–
Cn1nc(C(F)F)c(C(=O)N(Cc2cc(Cl)ccc2C(F)(F)F)C2CC2)c1F [Compound A15, N-[5-chloro-2-(trifluoromethyl)benzyl]-N-cyclopropyl-3-(difluoromethyl)-5-fluoro-1-methyl-1H-pyrazole-4-carboxamide]	15.8 nM	6.31	A	–
Cc1ccc(C(C)C)c(CN(C(=O)c2c(C(F)F)nn(C)c2F)C2CC2)c1 [Compound A12, N-cyclopropyl-3-(difluoromethyl)-5-fluoro-N-(2-isopropyl-5-methylbenzyl)-1-methyl-1H-pyrazole-4-carboxamide]	3.98 nM	1	A	–
CCc1ccccc1CN(C(=O)c1c(C(F)F)nn(C)c1F)C1CC1 [Compound A21, N-cyclopropyl-3-(difluoromethyl)-N-(2-ethylbenzyl)-5-fluoro-1-methyl-1H-pyrazole-4-carboxamide]	10 nM and 31.6 nM	2.51	A	–
Cc1ccc(C(C)(C)C)c(CN(C(=O)c2c(C(F)F)nn(C)c2F)C2CC2)c1 [Compound A14, N-(2-tert-butyl-5-methylbenzyl)-N-cyclopropyl-3-(difluoromethyl)-5-fluoro-1-methyl-1H-pyrazole-4-carboxamide]	5.01 nM	3.16	A	–
Cn1nc(C(F)F)c(C(=O)N(Cc2c(C(F)(F)F)ccc(Cl)c2F)C2CC2)c1F [Compound A18, N-[3-chloro-2-fluoro-6-(trifluoromethyl)benzyl]-N-cyclopropyl-3-(difluoromethyl)-5-fluoro-1-methyl-1H-pyrazole-4-carboxamide]	15.8 nM	6.31	A	activity on strains with P225 substitutions compared with wild type strain ([3]; strains with P225 substitutions vs wild type): always more active on strains with P225 substitutions than on wild type strain
CC(C)c1ccccc1CN(C(=S)c1c(C(F)F)nn(C)c1F)C1CC1 [Compound A20, N-cyclopropyl-3-(difluoromethyl)-5-fluoro-N-(2-isopropylbenzyl)-1-methyl-1H-pyrazole-4-carbothioamide]	631 nM	31.6	A	–
CC(C)c1ccccc1CN(C(=O)c1c(C(F)F)nn(C)c1F)C1CC1 [Compound A1, N-cyclopropyl-3-(difluoromethyl)-5-fluoro-N-(2-isopropylbenzyl)-1-methyl-1H-pyrazole-4-carboxamide]	12.6 nM	3.16	A	–
Cn1nc(C(F)F)c(C(=O)N(Cc2cc(F)ccc2C2CC2)C2CC2)c1F [Compound A8, N-cyclopropyl-N-(2-cyclopropyl-5-fluorobenzyl)-3-(difluoromethyl)-5-fluoro-1-methyl-1H-pyrazole-4-carboxamide]	7.94 nM	3.16	A	–
CC(C)c1ccc(Cl)cc1CN(C(=O)c1c(C(F)F)nn(C)c1F)C1CC1 [Compound A5, N-(5-chloro-2-isopropylbenzyl)-N-cyclopropyl-3-(difluoromethyl)-5-fluoro-1-methyl-1H-pyrazole-4-carboxamide]	6.31 nM	1.26	A	–
CCc1ccc(F)cc1CN(C(=O)c1c(C(F)F)nn(C)c1F)C1CC1 [Compound A6, N-cyclopropyl-3-(difluoromethyl)-N-(2-ethyl-5-fluorobenzyl)-5-fluoro-1-methyl-1H-pyrazole-4-carboxamide]	7.94 nM	2.51	A	–
Cn1nc(C(F)F)c(C(=O)N(Cc2cc(F)ccc2C2CCCC2)C2CC2)c1F [Compound A9, N-(2-cyclopentyl-5-fluorobenzyl)-N-cyclopropyl-3-(difluoromethyl)-5-fluoro-1-methyl-1H-pyrazole-4-carboxamide]	5.01 nM	3.16	A	–
Cn1nc(C(F)F)c(C(=O)N(Cc2c(Cl)cccc2C(F)(F)F)C2CC2)c1F [Compound A17, N-[2-chloro-6-(trifluoromethyl)benzyl]-N-cyclopropyl-3-(difluoromethyl)-5-fluoro-1-methyl-1H-pyrazole-4-carboxamide]	10 nM	3.16	A	–
Cc1ccc(C(F)(F)F)c(CN(C(=O)c2c(C(F)F)nn(C)c2F)C2CC2)c1 [Compound A16, N-cyclopropyl-3-(difluoromethyl)-5-fluoro-1-methyl-N-[5-methyl-2-(trifluoromethyl)benzyl]-1H-pyrazole-4-carboxamide]	20 nM	5.01	A	–
Cn1cc(C(=O)Nc2ccccc2-c2cc(F)c(F)c(F)c2)c(C(F)F)n1 [Fluxapyroxad]	–	–	C (Classification C pI50 decrease superior to 0.6 compared to WT)	PI50 Bo47 (Wild type) [1]: 8.0; resistance factor (RF), ratio of IC50 mutant/IC50 WT (Bo47) [3, 4]: 197.2; resistance factor (RF), ratio of IC50 mutant/IC50 WT (Bo47) [3, 5]: 135.6; resistance factor (RF), ratio of IC50 mutant/IC50 WT (Bo47) [3, 6]: 131.5; resistance factor (RF), ratio of IC50 mutant/IC50 WT (Bo47) [3, 7]: 89.1; resistance factor (RF), ratio of IC50 mutant/IC50 WT (Bo47) [3, 8]: 103.0; resistance factor (RF), ratio of IC50 mutant/IC50 WT (Bo47) [3, 9]: 127.9; resistance factor (RF), ratio of IC50 mutant/IC50 WT (Bo47) [3, 10]: 134.2; resistance factor (RF), ratio of IC50 mutant/IC50 WT (Bo47) [3, 11]: 104.7; PI50 P225H3884 [2]: 6.2
CC(C)C1C2CCC1c1c(NC(=O)c3cn(C)nc3C(F)F)cccc12 (stereo not shown) [Isopyrazam]	–	–	C (Classification C pI50 decrease superior to 0.6 compared to WT)	PI50 Bo47 (Wild type) [1]: 8 and 8.2; resistance factor (RF), ratio of IC50 mutant/IC50 WT (Bo47) [3, 4]: 48.4; resistance factor (RF), ratio of IC50 mutant/IC50 WT (Bo47) [3, 5]: 42.9; resistance factor (RF), ratio of IC50 mutant/IC50 WT (Bo47) [3, 6]: 37.9; resistance factor (RF), ratio of IC50 mutant/IC50 WT (Bo47) [3, 7]: 32.8; resistance factor (RF), ratio of IC50 mutant/IC50 WT (Bo47) [3, 8]: 19.7; resistance factor (RF), ratio of IC50 mutant/IC50 WT (Bo47) [3, 9]: 25.1; resistance factor (RF), ratio of IC50 mutant/IC50 WT (Bo47) [3, 10]: 30.7; sensitivity class of strains by RF ([3]; strains harboring P225H and F substitutions): moderately resistant (moderately resistant when RF was comprised between 10 and 50); PI50 P225H3884 [2]: 7.2
O=C(Nc1ccccc1-c1ccc(Cl)cc1)c1cccnc1Cl [Boscalid, reference compound]	39.8 nM	5010	C (Classification C pI50 decrease superior to 0.6 compared to WT)	–
Cn1nc(C(F)F)c(C(=O)N(Cc2ccccc2[Si](C)(C)C)C2CC2)c1F [Compound A22, N-cyclopropyl-3-(difluoromethyl)-5-fluoro-1-methyl-N-[2-(trimethylsilyl)benzyl]-1H-pyrazole-4-carboxamide]	3.98 nM	3.16	A	–
